Source: PubChem BioAssay (NCI)
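Five compound concentrations were applied to cells in 96-well plates for 48 hours; endpoints were derived by simple linear interpolation of the resulting dose-response curve. Here, GI50 denotes the concentration required for 50% inhibition of growth. Definition used: TGI = concentration required for complete inhibition of growth.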

Legend:
Test in all cases: inhibition of tumour cell growth, NCI panel, 48 h
HT29 colon = test system: HT29 colon
NCI-H522 lung = test system: NCI-H522 lung
SF-268 CNS = test system: SF-268 CNS
A549 NSCLC = test system: A549 NSCLC
HS 578T breast = test system: HS 578T breast
HCT-116 colon = test system: HCT-116 colon
BT-549 breast = test system: BT-549 breast
NCI-H460 lung = test system: NCI-H460 lung
U251 CNS = test system: U251 CNS
SK-OV-3 ovarian = test system: SK-OV-3 ovarian
M14 melanoma = test system: M14 melanoma
786-0 renal = test system: 786-0 renal
SK-MEL-5 melanoma = test system: SK-MEL-5 melanoma
HCC-2998 colon = test system: HCC-2998 colon
DU-145 prostate = test system: DU-145 prostate
T-47D breast = test system: T-47D breast
COLO 205 colon = test system: COLO 205 colon
MCF7 breast = test system: MCF7 breast
K-562 leukemia = test system: K-562 leukemia
HL-60(TB) leukemia = test system: HL-60(TB) leukemia
SK-MEL-2 melanoma = test system: SK-MEL-2 melanoma
MOLT-4 leukemia = test system: MOLT-4 leukemia
CAKI-1 renal = test system: CAKI-1 renal
OVCAR-8 ovarian = test system: OVCAR-8 ovarian
ACHN renal = test system: ACHN renal
SR leukemia = test system: SR leukemia
SF-539 CNS = test system: SF-539 CNS
SN12C renal = test system: SN12C renal
LOX IMVI melanoma = test system: LOX IMVI melanoma

SMILES: C=CC[Se]C(=O)c1cncc(C(=O)[Se]CC=C)c1
- GI50 (HT29 colon): 3030 nM
- TGI (HT29 colon): 10900 nM
- GI50 (NCI-H522 lung): 1680 nM
- TGI (NCI-H522 lung): 3100 nM
- GI50 (SF-268 CNS): 2230 nM
- TGI (SF-268 CNS): 6820 nM
- GI50 (A549 NSCLC): 434 nM
- TGI (A549 NSCLC): > 100000 nM
- GI50 (HS 578T breast): 1940 nM
- TGI (HS 578T breast): 6820 nM
- GI50 (HCT-116 colon): 1310 nM
- TGI (HCT-116 colon): 2820 nM
- GI50 (BT-549 breast): 1740 nM
- TGI (BT-549 breast): 3210 nM
- GI50 (NCI-H460 lung): 382 nM
- TGI (NCI-H460 lung): 3070 nM
- GI50 (U251 CNS): 782 nM
- TGI (U251 CNS): 2220 nM
- GI50 (SK-OV-3 ovarian): 1430 nM
- TGI (SK-OV-3 ovarian): 3030 nM
- GI50 (M14 melanoma): 1810 nM
- TGI (M14 melanoma): 3310 nM
- GI50 (786-0 renal): 1850 nM
- TGI (786-0 renal): 3270 nM
- GI50 (SK-MEL-5 melanoma): 1710 nM
- TGI (SK-MEL-5 melanoma): 3690 nM
- GI50 (HCC-2998 colon): 1060 nM
- TGI (HCC-2998 colon): 2260 nM
- GI50 (DU-145 prostate): 2220 nM
- TGI (DU-145 prostate): 4730 nM
- GI50 (T-47D breast): 2140 nM
- TGI (T-47D breast): 5140 nM
- GI50 (COLO 205 colon): 3650 nM
- TGI (COLO 205 colon): 10600 nM
- GI50 (MCF7 breast): 2210 nM
- TGI (MCF7 breast): 5550 nM
- GI50 (K-562 leukemia): 3150 nM
- TGI (K-562 leukemia): 10700 nM
- GI50 (HL-60(TB) leukemia): 2640 nM
- TGI (HL-60(TB) leukemia): 7670 nM
- GI50 (SK-MEL-2 melanoma): 1920 nM
- TGI (SK-MEL-2 melanoma): 3790 nM
- GI50 (MOLT-4 leukemia): 2730 nM
- TGI (MOLT-4 leukemia): 7740 nM
- GI50 (CAKI-1 renal): 1800 nM
- TGI (CAKI-1 renal): 3460 nM
- GI50 (OVCAR-8 ovarian): 1510 nM
- TGI (OVCAR-8 ovarian): 2940 nM
- GI50 (ACHN renal): 3280 nM
- TGI (ACHN renal): 10300 nM
- GI50 (SR leukemia): 3020 nM
- TGI (SR leukemia): 27100 nM
- GI50 (SF-539 CNS): 1360 nM
- TGI (SF-539 CNS): 2650 nM
- GI50 (SN12C renal): 628 nM
- TGI (SN12C renal): 1920 nM
- GI50 (LOX IMVI melanoma): 1740 nM
- TGI (LOX IMVI melanoma): 3350 nM
